Assay results as given in patent US8716558B2, “Method of altering glycosylation of proteins in response to nojirimycin glucuronide in a plant cell expressing glucuronidase” (Marker Gene Technologies, Inc., priority 1999, dated 2014).

Experiments:
Assay type in all cases: in vivo
[1] = test system: GUS-positive potato (May queen) plants; experiment: Negative selection of potato transformants; conditions: M0627 3.5 mg/L, M0630 10 mg/L, M0632 10 mg·L, M0792 5 mg/L; MS media, soil or daily spray
Procedure: Potato (May queen) pieces with sprouts are planted in a mixture of vermiculite and compost (1:1). After two weeks, the apical meristem culture of the grown sprouts is removed to obtain the sterile seedling plants. Sterile plants are then placed in MS liquid medium containing 2% sucrose, pH 5.7 (80 ml) and incubated with rotation at 25° C. in a well-lighted place to induce rooting. After two weeks, the rooted plants are transferred into MS liquid medium for microtuber induction (MS medium, 8% sucrose, pH 5.7, 40 ml medium in 100 ml Erlenmeyer flask) in the dark for 28 days. The microtubers are then cut into pieces (2 mm) and transferred into agar medium for regeneration (MS medium, 2% sucrose, 1 mg/l zeatin, 0.1 mg/l IAA, 1% agar). The pieces of the microtuber pre-cultured for two days are then immersed in an Agrobacterium tumefaciens strain LBA4404 suspension containing the binary plasmid pBI121 (Clontech, Palo Alto, Calif.) for transformation. The plasmid pBI121 carries the neomycin phosphotransferase (NPTII) gene and β-glucuronidase (GUS) gene. In this vector, the neomycin phosphotransferase (NPTII) gene is under the control of the nopaline synthase (nos) promoter and the terminator from nopaline synthase (nos) which provides polyadenylation signal. The neomycin phosphotransferase (NPTII) gene confers kanamycin resistance. The β-glucuronidase (GUS) activity is under the control of the cauliflower mosaic virus ^35S promoter, providing constitutive expression in all tissues, and the terminator from nopaline synthase (nos) provides polyadenylation. Agrobacterium tumefaciens was grown overnight at 28° C. in liquid YEP medium (Sambrook J., Fritsch E. F., Maniatis T., Molecular Cloning: a laboratory manual. 2nd ed., Cold Spring Harbor, N.Y., 1989) supplemented with 25 mg/l rifampicin, 50 mg/l streptomycin, and 50 mg/l kanamycin. An overnight culture is diluted with liquid TE medium to 4×10^8 cells/ml for transformation. A filter paper is placed on the agar medium, over the microtuber pieces and the co-culture is continued for 48 hours. The transfected microtubers are then washed 4-5 times in sterile distilled water to decrease the concentration of Agrobacterium tumefaciens and with a cefotaxime (250 mg/l) solution for 20 min, and then again with sterile distilled water (4-5 times). The microtubers are then transferred into an agar screening medium (MS medium, 2% sucrose, 1 mg/l zeatin, 1 mg/l IAA, 1% agar, 50 mg/l kanamycin, 500 mg/l Claforan, 1% agar). After about two months growth, the divided shoots are transferred into a rooting induction medium and then into a microtuber induction medium. The obtained GUS-positive plants are used for the analysis.

[2] = test system: Arabidopsis thaliana Landsberg erecta wild type (WT); experiment: Plant growth on MS media containing conjugates, wild type
Text: (§1) Arabidopsis thaliana Landsberg erecta is a wild type (WT) strain derived from the Landsberg ecotype. Arabidopsis thaliana Landsberg erecta strain DW150-307 (DW) is a transgenic strain produced using the method of Blazquez et al., 1997, Development 124:3835-3844. The transgenic DW strain is homozygous for the LFY::GUS insertion and thus contains GUS under control of the full length LFY promoter that expresses E. coli β-glucuronidase. Expression of GUS in this strain is developmentally regulated, showing the highest levels 9 days after germination (at the onset of meristem floral initiation under a long-day, 16 h. light regime), but having basal levels in vegetative apices throughout secondary growth. Accordingly, GUS expression leads to production of the E. coli β-glucuronidase enzyme in floral and to a lesser extent in shoot meristem tissues of the plant. Isogenic homozygous plant strains were kindly provided by Dr. Detlef Weigel, Department of Biology, The Salk Institute, San Diego, Calif.
(§2) Wild type (WT) and recombinant (DW) plants were grown in MS media containing 0-100 ug/mL of conjugates M0630, M0632, or M0792 (prepared as set forth herein). All plants were grown at 23° C. in long-day (16 hours light/8 hours dark) cycles, under a mixture of Cool White and Gro-Lux/WS fluorescent lights (Osram, Sylvania) and sterile conditions.

wild-type potato plants = experiment: Negative selection of potato, wild type; conditions: M0627 3.5 mg/L, M0630 10 mg/L, M0632 10 mg·L, M0792 5 mg/L; MS media, soil or daily spray
[3] = test system: GUS-positive tomato (minitomato) plants; experiment: Negative selection of tomato transformants; conditions: M0627 3.5 mg/L, M0630 10 mg/L, M0632 10 mg·L, M0792 5 mg/L; MS media, soil or daily spray
Procedure: Tomato (cultivar, minitomato) seeds are surface-sterilized with 70% ethanol (30 seconds) and 2% sodium hypochlorite (15 minutes), and then placed on a plant hormone-free MS agar medium. The seeds are cultured at […] 23° C. in long-day (16 hours light/8 hours dark) cycles, under a mixture of Cool White and Gro-Lux/WS fluorescent lights (Osram, Sylvania) and sterile conditions. The cotyledons are taken from the obtained sterile seedlings and then placed on an MS agar medium containing 2 mg/l of Zeatin and 0.1 mg/l of IAA (regeneration medium) in 9 cm Petri dishes, and cultured under the same conditions as those described above for 2 days.
Agrobacterium tumefaciens strain LBA4404 suspension containing the binary plasmid pBI121 (Clontech, Palo Alto, Calif.) is used for transformation. The plasmid pBI121 carries the neomycin phosphotransferase (NPTII) gene and β-glucuronidase (GUS) gene. In this vector, the neomycin phosphotransferase (NPTII) gene is under the control of the nopaline synthase (nos) promoter and the terminator from nopaline synthase (nos) which provides polyadenylation signal. The neomycin phosphotransferase (NPTII) gene confers kanamycin resistance. The β-glucuronidase (GUS) activity is under the control of the cauliflower mosaic virus ^35S promoter, providing constitutive expression in all tissues, and the terminator from nopaline synthase (nos) provides polyadenylation. Agrobacterium tumefaciens is grown overnight at 28° C. in liquid YEP medium (Sambrook J., Fritsch E. F., Maniatis T., Molecular Cloning: a laboratory manual. 2nd ed., Cold Spring Harbor, N.Y., 1989) supplemented with 25 mg/l rifampicin, 50 mg/l streptomycin, and 50 mg/l kanamycin. An overnight culture is diluted with liquid TE medium to 4×10^8 cells/ml for transformation.
The cotyledons cultured for two days are collected in a sterilized Petri dish, and the Agrobacterium suspension is added to them to cause infection. Superfluous Agrobacterium suspension is removed from the cotyledons by using a sterilized filter paper. After further removing excess Agrobacterium suspension, a sterilized filter paper is placed on the medium in the Petri dish in order to prevent rapid propagation of Agrobacterium. The infected cotyledons are placed on this media and co-cultured for 24 hours.
The transfected cotyledons are then transferred into an agar screening medium (MS medium, 2% sucrose, 1 mg/l zeatin, 1 mg/l IAA, 1% agar, 50 mg/l kanamycin, 500 mg/l claforan, 1% agar) to select the GUS transformant plants. The regenerated shoots are then transferred into a new selecting medium to conduct further selection.

wild-type tomato plants = experiment: Negative selection of tomato, wild type; conditions: M0627 3.5 mg/L, M0630 10 mg/L, M0632 10 mg·L, M0792 5 mg/L; MS media, soil or daily spray
[4] = test system: Arabidopsis thaliana Landsberg erecta strain DW150-307 (DW); experiment: Plant growth on MS media containing conjugates, LFY::GUS recombinant; conditions: for floral tissue response of DW plants upon inflorescence / vegetative growth of DW plants: MS media containing conjugate
Text: as §1, §2

[5] = test system: Arabidopsis thaliana Landsberg erecta strain DW150-307; experiment: Growth and glycoprotein glycosylation in GUS-containing plants; conditions: for carbohydrate patterns of glycoproteins compared with control seeds: ANTS and 1,5-EDANS labeling, HPLC and PAGE; for decrease in number of inflorescence stems (average) / plant growth: M0809 22 mg/L or M0872 25 mg/L in MS agar medium
Procedure: Arabidopsis thaliana Landsberg erecta strain DW150-307 plants were propagated from seeds. Seeds were surface-sterilized with 70% ethanol (30 seconds) and 2% sodium hypochlorite (15 minutes), and then placed on a plant hormone-free MS agar medium. After incubation at 4° C. for 2 days, the seeds were cultured at 25° C. for one week while the daylight hours were kept to be 16 hours. The cotyledons were taken from the obtained sterile seedlings and then placed on an MS agar medium containing either deoxynojirimycin b-D-glucuronide methyl ester (M0809) (22 mg/L) or deoxymannonojirimycin b-D-glucuronidetriacetate, methyl ester (M0872) (25 mg/L) (regeneration medium in 9 cm Petri dish), and cultured under the same conditions as those described above for 6 days. Plants were transplanted into fresh media containing the same concentrations of M0809 or M0872 as above, and growth continued for an additional 19 days, until full seed pods were obtained. Plants grew normally on media containing the M0809 or M0872, except that the number of inflorescence stems was decreased (an average of 50%) in the treated plant specimens. Seed pods, floral and stem tissues from these plants were harvested, and seeds dried briefly in vacuo (10 mm Hg, 1 hour). Seeds were crushed, and carbohydrate content of all tissues analyzed using the ANTS and 1,5-EDANS labeling systems, followed by HPLC analysis and PAGE electrophoretic analysis.

[6] = 100 ug/mL in MS media (highest concentration)
[7] = lower concentrations in MS media

Structure (SMILES) | effect on GUS-positive plants [1] | growth of wild type plants [2, 6] | growth of wild type plants [2, 7] | effect on wild-type plants (wild-type potato plants) | effect on GUS-positive plants [3] | effect on wild-type plants (wild-type tomato plants) | floral tissue response of DW plants upon inflorescence [4] | vegetative growth of DW plants [4] | growth phenotype of DW150-307 plants ([4]; 1 ug/mL for 32 days) | germination and survival of DW plants ([4]; media application, above the lowest concentration) | carbohydrate patterns of glycoproteins compared with control seeds [5] | decrease in number of inflorescence stems (average) [5] | plant growth [5]
COC(=O)C1OC(Oc2ccc(=O)[nH]n2)C(OC(C)=O)C(OC(C)=O)C1OC(C)=O [Example M0627, Maleic Hydrazide Beta-D-Glucuronide Triacetate, Methyl Ester] | selective ablation | slightly slower | comparable growth to the blank controls | does not affect growth or morphology | selective ablation | does not affect growth or morphology | – | – | – | – | – | – | –
COC(=O)C1OC(Oc2c(Br)cc(C#N)cc2Br)C(OC(C)=O)C(OC(C)=O)C1OC(C)=O [Example M0630, bromoxynil-β-D-glucuronic acid methyl ester triacetate] | selective ablation | – | – | does not affect growth or morphology | selective ablation | does not affect growth or morphology | floral tissues became chlorotic (brown) and became dehydrated and ablated | normal vegetative growth until inflorescence initiation | – | – | – | – | –
COC(=O)C1OC(Oc2c(Br)cc(C#N)cc2Br)C(O)C(O)C1O [Example M0632, Bromoxynil-β-D-glucuronic acid methyl ester] | selective ablation | slightly slower | comparable growth to the blank controls | does not affect growth or morphology | selective ablation | does not affect growth or morphology | – | – | callus formation | either did not germinate or were ablated shortly after germination | – | – | –
COC(=O)C1OC(OC(CC2CC(=O)NC(=O)C2)C2CC(C)CC(C)C2=O)C(OC(C)=O)C(OC(C)=O)C1OC(C)=O [Example M0792, Cycloheximide-β-D-glucuronic acid methyl ester triacetate] | selective ablation | slightly slower | comparable growth to the blank controls | does not affect growth or morphology | selective ablation | does not affect growth or morphology | floral tissues became chlorotic (brown) and became dehydrated and ablated | normal vegetative growth until inflorescence initiation | – | – | – | – | –
COC(=O)C1OC(OCC2NCC(O)C(O)C2O)C(O)C(O)C1O [Example M0809, deoxynojirimycin b-D-glucuronide methyl ester] | – | – | – | – | – | – | – | – | – | – | modified in structure | 50% | grew normally
COC(=O)C1OC(OCC2NCC(O)C(O)C2O)C(OC(C)=O)C(OC(C)=O)C1OC(C)=O [Example M0872, deoxymannonojirimycin b-D-glucuronidetriacetate, methyl ester] | – | – | – | – | – | – | – | – | – | – | modified in structure | 50% | grew normally
